The subject of test [1] is St. Aureus Russell. In words: standard MIC test, antibacterial activity of compound alone. It is filed as cell-based, Staphylococcus aureus. The conditions noted are these: for MIC: Staphylococcus aureus. The text has this: (§1) In a standard MIC test the following antibacterial activities were obtained.
For test [2], the system named is K. aerogenes E70. The description is as above. It is filed as cell-based, Klebsiella aerogenes. The conditions noted are these: for MIC: Klebsiella aerogenes.
Excerpt: as §1

Another test concerns E.coli JT39. Described as above. It is filed as cell-based, Escherichia coli. The conditions noted are these: for MIC: Escherichia coli.
Excerpt: as §1

The subject of test [3] is K. aerogenes E70. The test is described as follows: standard MIC test, synergy of tetrazolyl derivatives with amoxycillin. Type of test: cell-based, Klebsiella aerogenes.
Test [4] concerns St. Aureus Russell. Described as above. It is filed as cell-based, Staphylococcus aureus.
A further test concerns E. coli JT39. The test is described as above. It is filed as cell-based, Escherichia coli. From the text: In a standard MIC test the following data were obtained for the synergistic activity of tetrazolyl derivatives with amoxycillin.
Where [5] appears, read: amoxycillin plus compound at 1.0 μg/ml.
Setting [6] is: amoxycillin plus compound at 5.0 μg/ml.

Converted amounts (≈) assume the structure as drawn.

The MIC is the least concentration at which growth counts as inhibited. A high value points to a need for much substance.

Consider `O=C(O)C1C(=CCn2ncnn2)OC2CC(=O)N21` (centres unmarked) [Example 7, Lithium 9-tetrazol-2-yldoexyclavulanate], for which the MIC against St. Aureus Russell [1], in the test on K. aerogenes E70 [2] and in the test with E.coli JT39 was 16 µg/mL (≈ 63.7 µM) throughout.
On to `Nc1nnnn1CC=C1OC2CC(=O)N2C1C(=O)[O-].[Li+]` (centres unmarked) [Example 10, Lithium 9-(5-aminotetrazolyl)deoxyclavulanate], for which the MIC (antibacterial activity) is 8 µg/mL against St. Aureus Russell [1], 31.2 µg/mL in the test on K. aerogenes E70 [2] and 8 µg/mL against E.coli JT39. For the same compound, the MIC amoxycillin in the test with K. aerogenes E70 [3] (setting [5]) stood at 3.1 µg/mL; in the test with K. aerogenes E70 [3] (setting [6]) it was 0.4 µg/mL; in the test on St. Aureus Russell [4] (setting [5]), 0.3 µg/mL; with St. Aureus Russell [4] (setting [6]) it was 0.04 µg/mL; in the test on E. coli JT39 (setting [5]) it was 4.0 µg/mL.
As to `CCOC(=O)c1nnnn1CC=C1OC2CC(=O)N2C1C(=O)O` (centres unmarked) [Example 14, Lithium 9-(5-ethoxycarbonyltetrazol-1-yl)deoxyclavulanate], the results for the MIC in the test on St. Aureus Russell [1], against K. aerogenes E70 [2] and with E.coli JT39 were 8 µg/mL (≈ 24.7 µM), 31.2 µg/mL (≈ 96.5 µM) and 8 µg/mL (≈ 24.7 µM), respectively.
With `O=C(O)c1nnnn1CC=C1OC2CC(=O)N2C1C(=O)O` (centres unmarked) [Example 15, Disodium 9-(5-carboxylatotetrazol-1-yl)deoxyclavulanate], the MIC came out at 16 µg/mL against St. Aureus Russell [1], 31.2 µg/mL with K. aerogenes E70 [2] and 16 µg/mL in the test with E.coli JT39.
In the case of `O=C(O)C1C(=CCn2cnnn2)OC2CC(=O)N21` (centres unmarked) [Example 18, Lithium 9-(tetrazol-1-yl)deoxyclavulanate], the MIC with St. Aureus Russell [1] came out at 16 µg/mL (≈ 63.7 µM); against K. aerogenes E70 [2], 62.5 µg/mL (≈ 249 µM); against E.coli JT39, 16 µg/mL (≈ 63.7 µM).
With `Cc1nnnn1CC=C1OC2CC(=O)N2C1C(=O)O` (centres unmarked) [Example 25, Potassium 9-(5'-methyltetrazol-1'-yl)-9-deoxyclavulanate], the MIC in the test with St. Aureus Russell [1] was 16 µg/mL; against K. aerogenes E70 [2], 62.5 µg/mL; against E.coli JT39, 8 µg/mL.
Turning to `O=C(O)C1C(=CCn2nnnc2-c2ccccc2)OC2CC(=O)N21` (centres unmarked) [Example 27, Potassium 9-(5'-phenyltetrazol-1'-yl)-9-deoxyclavulanate], the minimal inhibitory concentration (MIC) in the test with St. Aureus Russell [1] is 4 µg/mL; in the test on K. aerogenes E70 [2] it was over 500 µg/mL; against E.coli JT39, 125 µg/mL.
With `O=CNc1nnnn1CC=C1OC2CC(=O)N2C1C(=O)[O-].[Li+]` (centres unmarked) [Example 35, Lithium 9-(5-formamidotetrazolyl)deoxyclavulanate], the MIC (antibacterial activity) in the test on St. Aureus Russell [1] was found to be 16 µg/mL; in the test with K. aerogenes E70 [2] it was 62.5 µg/mL; with E.coli JT39 it was 31.2 µg/mL. The MIC amoxycillin in the test on K. aerogenes E70 [3] (setting [5]) came out at 6.2 µg/mL; in the test on K. aerogenes E70 [3] (setting [6]), 1.6 µg/mL; in the test with St. Aureus Russell [4] (setting [5]), 0.6 µg/mL; in the test on St. Aureus Russell [4] (setting [6]), 0.16 µg/mL; with E. coli JT39 (setting [5]) it was 8.0 µg/mL; in the test on E. coli JT39 (setting [6]), 4.0 µg/mL.
As to `CC1(C)S[C@@H]2[C@H](NC(=O)[C@H](N)c3ccc(O)cc3)C(=O)N2[C@H]1C(=O)O` [amoxycillin, reference compound], the results for the MIC amoxycillin with K. aerogenes E70 [3] (amoxycillin alone), in the test with St. Aureus Russell [4] (amoxycillin alone) and with E. coli JT39 (amoxycillin alone) were 1000 µg/mL, 500 µg/mL and 2000 µg/mL, respectively.
Consider “Sodium 9-(5-acetamidotetrazolyl)deoxyclavulanate [Example 12]”, for which the MIC (antibacterial activity) in the test on St. Aureus Russell [1] amounted to 16 µg/mL; with K. aerogenes E70 [2], 31.2 µg/mL; against E.coli JT39, 16 µg/mL. In addition, the MIC amoxycillin is 3.1 µg/mL with K. aerogenes E70 [3] (setting [5]); 1.5 µg/mL in the test on K. aerogenes E70 [3] (setting [6]); 0.3 µg/mL in the test with St. Aureus Russell [4] (setting [5]); 0.08 µg/mL with St. Aureus Russell [4] (setting [6]); 4.0 µg/mL with E. coli JT39 (setting [5]); at most 0.5 µg/mL with E. coli JT39 (setting [6]).

These data come from US4584291A, “9-deoxy-9-tetrazolyl-derivatives of clavulanic acid, their preparation and their use” (Beecham Group p.l.c., priority 1980, dated 1986).
